Data from patent EP1282604B1, “SUBSTITUTED CAPROLACTAM CARBONATES AND ETHERS AND THEIR USE AS ANTI-TUMOR AGENTS” (Novartis AG, priority 2000, dated 2001).

What was measured:
[1] = test system: MDA-MB-435 tumor xenografts; experiment: Human tumor xenograft growth inhibition in athymic nude mice; type: in vivo; conditions: 2 mg/kg iv, 3X/week for 3 weeks
Procedure: Utilizing this model, one can measure the ability of test compounds to inhibit the growth of human tumor xenografts growing subcutaneously (s.c.) in athymic nude mice. The histologic tumor type employed was MDA-MB-435 breast carcinoma for Ex.1 and 7 and A549 non-small cell lung carcinoma for Ex. 1-3.
MDA-MB-435 human breast carcinoma: Treatments were started 15 d post implantation (3 x 10^6 cells/mouse), when a mean tumor volume of approximately 45 mm^3 was reached. Ex.1 and 7 were administered iv at three times per week for 3 weeks (days 15, 17, 20, 22, 24, 27, 29, and 31), at 3.3, 10, and 33 µmol/kg. Doxorubicin was administered iv at 2 mg/kg using the same schedule. Each data point represents tumor growth (mean ± SEM), or body weight (mean), with an initial group size of n = 8, from a representative experiment performed twice. An asterisk (*) indicates p < 0.05 using a one-tailed Student's t-test.
Toxicity was monitored by recording average group body weights twice weekly, and by daily observation of general health. Efficacy was monitored by taking measurements of tumor length, width, and depth weekly using digital calipers coupled to automated data collectors. Mean tumor volume (MTV) at initiation of therapy was subtracted from final MTV in order to express the actual tumor growth during treatment (A MTV). Anti-tumor activity was expressed as %T/C (A MTV of treated group ÷ Δ MTV of control group X100%). Statistical significance was evaluated using a one-tailed Student's t-test (p<0.05).

[2] = test system: MDA-MB-435 human breast carcinoma; experiment: Anchorage Dependent Growth Monolayer Assay (ADGMA), MTS readout; type: cell-based; conditions: Homo sapiens, 72 h; 3-day exposure, MDA-MB-435 cells; read-out: IC50 values (average ± S.D.) MDA-MB-435
From the text: (§1) As indicated above, all of the compounds of formula I, and their corresponding pharmaceutically acceptable acid addition salts, are anti-tumor agents and are, therefore, useful in inhibiting the growth of various lymphomas, sarcomas, carcinomas, myelomas, and leukemia cell lines. […] This assay was adapted from the 60 cell line assay used by the National Cancer Institute (NCl) with the following modifications: 1) cell lines representative for the important tumor types, viz., MDA-MB-435 human breast, A549 non-small cell lung, H1299 lung, HCT-116 colon and PC-3 prostate carcinomas, and U2OS osteosarcomas were utilized; and 2) a tetrazolium derivative, viz., 3-(4,5-dimethylthiazol-2-yl)-5-(3-carboxymethoxyphenyl)-2-(4-sulfophenyl)-2H-tetrazolium, inner salt (MTS), was utilized to determine cell density.
(§2) The ADGMA compares the number of viable cells following a 3-day exposure to a test compound relative to a number of cells present at the time the test compound was added. […] The absorbance at 490 nm (A490) of the formazan derivative is proportional to the number of viable cells. The IC50 for a test compound is the concentration of compound required to reduce the final cell number to 50% of the final control cell number. If cell proliferation is inhibited, the assay further defines compounds as cytostatic (cell number after 3-day compound incubation >cell number at time of compound addition) or cytotoxic (cell number after 3-day compound incubation <cell number at time of compound addition).
(§3) The MDA-MB-435 human breast carcinoma and the A549 non-small cell lung carcinoma lines were obtained from the American Type Culture Collection (ATCC) and used between passages 4-20 following thawing. MDA-MB-435 human breast carcinoma and A549 non-small cell lung carcinoma cells were maintained and plated in DME/F12 medium containing 10% fetal bovine serum, 15 mM HEPES (pH=7.4), 100 units/mL penicillin, and 100 µg/mL streptomycin.
(§4) Cell lines are trypsinized and counted using a Coulter counter to determine plating densities. Cells are then plated in their respective maintenance media (100 µL/well) in 96 well plates at the following densities: MDA-MB-435 and U2OS, 3,000 cells/well; A549 and HCT-116, 700 cells/well; H1299, 1,000 cells/well; and PC-3, 2500 cells/well. The number of cells plates as determined in preliminary experiments, results in cell densities of 75-90% of confluency by 4 days after plating. Initial cell densities, assayed one day after plating, are roughly 0.15-0.20 absorbance units greater than the media blank. Ninety-six well plates are seeded on day 0 and the test compounds are added on day 1. A control plate is created for each cell line that receives media only in row A and cells in row B. One day following plating, test compounds are added (in a final volume of 100 µL) to the test plates. Control plates receive 10 µL MTS mixture (prepared fresh on day of addition to cell plates at a ratio of 10 µL of a 0.92 mg/mL solution of PMS to a 190 µL of a 2 mg/mL solution of MTS) and 100 µL media. A490 of control plates is read 4 h after MTS addition to determine initial cell density values for each cell line. Three days after addition of test compound, 10 µL/well of MTS mixture is added to the test plates and A490 is read 4 h later. A490 values for wells containing cells are corrected for media absorbance, then normalized to initial density readings to determine percent net growth. IC50 values are determined from graphs of percent net growth as a function of compound concentration. Percent net growth is calculated as (Cell + Drug A490 - Initial A490/Cell + Drug Vehicle A490 - Initial A490) x 100%.

[3] = test system: A549 non-small cell lung carcinoma; experiment: as above; type: cell-based, human; conditions: Homo sapiens, 72 h; 3-day exposure, A549 cells; read-out: IC50 values (average ± S.D.) A549
From the text: as §1, §2, §3, §4

PC-3 prostate carcinoma = experiment: as above; type: cell-based; conditions: Homo sapiens, 72 h; 3-day exposure, PC-3 cells; read-out: IC50 values (average ± S.D.) PC-3
From the text: as §1, §2
(§5) The H1299 lung, HCT-116 colon, and PC-3 prostate carcinoma cell lines, and U2OS osteosarcoma cell line were obtained from the American Type Culture Collection (ATCC) and used between passages 4-20 following thawing. H1299 and HCT-116 cells were maintained in RPMI 1640 containing 10% FBS, 100 units/mL penicillin and 100 µg/mL streptomycin; PC-3 cells were maintained in Kahn's Modification containing 10% FBS, 100 units/mL penicillin and 100 µg/mL streptomycin; and U2OS cells were maintained in DMEM containing 10% FBS, 100 units/mL penicillin and 100 µg/mL streptomycin.
as §4

H1299 lung carcinoma = experiment: as above; type: cell-based; conditions: Homo sapiens, NCI-H1299, 72 h; 3-day exposure, H1299 cells; read-out: IC50 values (average ± S.D.) H1299
From the text: as §1, §2, §5, §4

U2OS osteosarcoma = experiment: as above; type: cell-based; conditions: Homo sapiens, 72 h; 3-day exposure, U2OS cells; read-out: IC50 values (average ± S.D.) U2OS
From the text: as §1, §2, §5, §4

HCT-116 colon carcinoma = experiment: as above; type: cell-based; conditions: Homo sapiens, 72 h; 3-day exposure, HCT-116 cells; read-out: IC50 values (average ± S.D.) HCT-116
From the text: as §1, §2, §5, §4

| SMILES | Dead/Total [1] | Δ MTV [1] [mm^3] | %T/C ([1]; * = p<0.05) | IC50 [2] [nM] | IC50 [3] [nM] | IC50 (PC-3 prostate carcinoma) [nM] | IC50 (H1299 lung carcinoma) [nM] | IC50 (U2OS osteosarcoma) [nM] | IC50 (HCT-116 colon carcinoma) [nM] |
| --- | --- | --- | --- | --- | --- | --- | --- | --- | --- |
| COc1cccc2c1C(=O)c1c(O)c3c(c(O)c1C2=O)C[C@@](O)(C(=O)CO)C[C@@H]3O[C@H]1C[C@H](N)[C@H](O)[C@H](C)O1 [doxorubicin, reference compound] | 0/8 | 82 | 46* % | 400 ± 10 | 500 ± 160 | 330 ± 120 | 430 ± 290 | 130 ± 30 | 80 ± 60 |
| CO[C@@H](C(=O)N[C@H]1CC[C@@H](OC(=O)OCc2ccccc2)CNC1=O)[C@H](O)[C@@H](O)[C@H](O)/C=C/C(C)(C)C [Ex. 4, (2R, 3R, 4S, 5R, 6E)-3,4,5-trihydroxy-2-methoxy-8,8-dimethyl-N-[(3S, 6R)-hexahydro-2-oxo-6-([[phenylmethoxy]carbonyl]oxy)-2H-azepin-3-yl]non-6-enonamide] |  |  |  | 130 ± 70 | 158 ± 16 | 80 | 170 ± 130 | 250 ± 140 | 80 ± 10 |
